Active and inactive are the calls of the source.
Experiments:
[1] = antiviral protection against BTV-induced cell death – arbovirus, BSR cells, confirmation (AID 1250); type: functional;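 note: protection from viral cytopathic effect measured as cell viability by ATP luminescence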
Nonstructural protein 1 = Nonstructural protein 1 (Influenza A virus, UniProt Q194T2); type: functional, Influenza A virus (A/California/07/2009(H1N1))
H9c2 = assay: cells; type: functional, cell-based; conditions: Rattus norvegicus, H9c2, Myocardium;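 note: confirmatory concentration-response retest of ultra-high-throughput screening hits for modulation of myocardial damage; cell death induced by hydrogen peroxide oxidative stress; compound pretreatment for 60 min then peroxide exposure for 2 h; potency is for protecting the cells against peroxide damage rather than for killing them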
[2] = target: Epstein-Barr nuclear antigen 1 (Epstein-Barr virus (strain B95-8) (HHV-4) (Human herpesvirus 4), UniProt P03211); assay: inhibition of EBV nuclear antigen 1 DNA binding – biochemical, fluorescence polarization, 1536-well, dose response (AID 2381); set-up: species or system human gammaherpesvirus 4;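 note: fluorescence polarization of a Cy5 DNA probe bound by EBNA-1 protein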
[3] = target: Lytic switch protein BZLF1 (Epstein-Barr virus (strain B95-8) (HHV-4) (Human herpesvirus 4), UniProt P03206); assay: inhibition of BZLF1 ZTA DNA binding – biochemical, fluorescence polarization, Epstein-Barr virus, 1536-well, counter-screen for EBNA-1 inhibitor project, dose response (AID 2377); set-up: species or system human gammaherpesvirus 4;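 note: fluorescence polarization of Cy5-labelled ZRE DNA probe bound by purified Zta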
[4] = target: Sphingosine 1-phosphate receptor 2 (Homo sapiens, UniProt O95136); assay: Dose Response Cell-Based Assay for Agonists of the Sphingosine 1-Phosphate Receptor 2 (S1P2): Purchased Analogues. [Related pubchem assays: 1192, 373, 439 ]; type: functional
[5] = target: Sphingosine 1-phosphate receptor 1 (Homo sapiens, UniProt P21453); assay: Dose Response Cell-Based Assay for Agonists of the Sphingosine 1-Phosphate Receptor 1 (S1P1): Purchased Analogues. [Related pubchem assays: 1192, 373, 439 ]; type: functional
[6] = target: Sphingosine 1-phosphate receptor 3 (Homo sapiens, UniProt Q99500); assay: Dose Response Cell-Based Assay for Agonists of the Sphingosine 1-Phosphate Receptor 3 (S1P3): Purchased Analogues. [Related pubchem assays: 373, 439 ]; type: functional
[7] = system: Streptococcus sp. 'group A'; assay: Streptococcus pyogenes SK(-)GAS viability under kanamycin – luminescence, BacTiterGlo, confirmation, counter-screen for streptokinase expression inhibitor project, dose response (AID 1900); type: functional, organism-based
Streptokinase A = target: T1, Streptokinase A (Streptococcus pyogenes serotype M1, UniProt P10520); assay: viability-normalized secreted streptokinase activity reduction – plasminogen activation absorbance, OD405, dose response (AID 1914); type: functional, Streptococcus pyogenes M1 GAS;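 note: secreted streptokinase activity via plasminogen activation per viability signal from cell pellet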
T1 sequence (P10520 whole entry): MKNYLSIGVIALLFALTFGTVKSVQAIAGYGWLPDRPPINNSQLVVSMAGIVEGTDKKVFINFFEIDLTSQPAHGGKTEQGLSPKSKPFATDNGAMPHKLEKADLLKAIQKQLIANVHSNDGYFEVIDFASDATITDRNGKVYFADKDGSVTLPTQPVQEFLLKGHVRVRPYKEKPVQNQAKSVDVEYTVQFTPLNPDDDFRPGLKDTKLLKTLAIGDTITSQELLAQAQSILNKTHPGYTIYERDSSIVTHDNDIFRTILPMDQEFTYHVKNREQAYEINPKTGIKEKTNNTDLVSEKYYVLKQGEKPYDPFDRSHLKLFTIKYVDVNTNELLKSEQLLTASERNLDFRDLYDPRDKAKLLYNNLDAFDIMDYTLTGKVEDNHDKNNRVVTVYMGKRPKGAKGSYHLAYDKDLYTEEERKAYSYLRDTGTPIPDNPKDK

[8] = target: G-protein coupled receptor 55 (Homo sapiens, UniProt Q9Y2T6); assay: inhibition of LPI-stimulated GPR55 beta-arrestin translocation – imaging, U2OS, beta-arrestin-GFP, LPI agonist, primary screen (AID 2013); type: functional;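 note: antagonist potency measured as reduced agonist-driven arrestin aggregation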
[9] = target: T2, Kappa-type opioid receptor (Homo sapiens, UniProt P41145); type: functional
Beta-galactosidase = Beta-galactosidase (Escherichia coli, UniProt Q8VNN2); type: functional
[10] = target: T2, Kappa-type opioid receptor; type: functional; remark: listed apart in the source
[11] = mitochondrial function rescue without frataxin homolog – Friedreich's ataxia, plus single-dose screen, dose response (AID 1465); type: functional;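 note: yeast depleted of Yfh1p frataxin homolog grown on glycerol needing respiration; WST-1 tetrazolium dye reduction as measure of cellular dehydrogenase metabolic activity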
Streptococcus = assay: GAS UMAA2166 growth inhibition – luminescence, BacTiterGlo, counter-screen for streptokinase expression inhibitor project, dose response (AID 1915); type: functional, organism-based;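 note: potency for reduction of bacterial viability or growth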
[12] = target: Matrix metalloproteinase-14 (Homo sapiens, UniProt P50281); assay: Dose Response confirmation of uHTS hits for a small molecule inhibitors of MT1-MMP activation in a fluorescence assay set 2.; type: functional
Bcl-2-related protein A1 [13] = target: T3, Bcl-2-related protein A1 (Mus musculus, UniProt Q07440); assay: displacement of Bid BH3 peptide from Bfl-1 – biochemical, fluorescence polarization, FITC-Bid, mouse, primary screen (AID 432)
T3 sequence (Q07440 whole entry): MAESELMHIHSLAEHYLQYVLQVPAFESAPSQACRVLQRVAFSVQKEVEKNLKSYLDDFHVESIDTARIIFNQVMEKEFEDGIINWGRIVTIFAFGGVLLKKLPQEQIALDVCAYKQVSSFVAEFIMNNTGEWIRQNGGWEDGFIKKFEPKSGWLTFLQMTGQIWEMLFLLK

Bcl-2-related protein A1 [14] = target: T3, Bcl-2-related protein A1; assay: small-molecule antagonists of Bfl-1/BH3 interaction – biochemical, TR-FRET, mouse Bfl-1, confirmation (AID 621);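 note: TR-FRET binding of GST-Bfl-1 to FITC-labelled Bid peptide via terbium antibody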
fMet-Leu-Phe receptor = fMet-Leu-Phe receptor (Homo sapiens, UniProt P21462); assay: formyl peptide receptor binders – dose response (AID 519); type: functional
Chain of fMet-Leu-Phe receptor (P21462 whole entry): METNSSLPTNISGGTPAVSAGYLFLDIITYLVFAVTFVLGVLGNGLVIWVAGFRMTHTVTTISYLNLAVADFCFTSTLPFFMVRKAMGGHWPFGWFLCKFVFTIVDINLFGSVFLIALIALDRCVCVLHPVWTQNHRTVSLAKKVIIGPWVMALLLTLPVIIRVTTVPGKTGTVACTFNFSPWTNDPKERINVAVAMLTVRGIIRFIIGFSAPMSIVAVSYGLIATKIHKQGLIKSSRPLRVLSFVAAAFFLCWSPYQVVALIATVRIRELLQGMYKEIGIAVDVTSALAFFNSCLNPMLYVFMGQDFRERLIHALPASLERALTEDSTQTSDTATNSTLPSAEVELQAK

T2 sequence (P41145 whole entry): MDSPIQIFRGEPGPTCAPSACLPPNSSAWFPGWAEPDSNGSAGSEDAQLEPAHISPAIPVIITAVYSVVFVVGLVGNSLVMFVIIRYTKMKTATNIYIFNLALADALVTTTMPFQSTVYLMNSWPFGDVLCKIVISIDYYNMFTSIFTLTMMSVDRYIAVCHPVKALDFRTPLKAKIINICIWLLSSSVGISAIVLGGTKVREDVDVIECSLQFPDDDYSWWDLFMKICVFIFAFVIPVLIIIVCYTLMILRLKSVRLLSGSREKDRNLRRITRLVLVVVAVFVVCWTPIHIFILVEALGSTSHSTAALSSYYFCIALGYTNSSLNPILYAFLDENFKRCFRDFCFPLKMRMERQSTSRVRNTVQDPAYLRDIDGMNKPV
Chain of Sphingosine 1-phosphate receptor 1 (P21453 whole entry): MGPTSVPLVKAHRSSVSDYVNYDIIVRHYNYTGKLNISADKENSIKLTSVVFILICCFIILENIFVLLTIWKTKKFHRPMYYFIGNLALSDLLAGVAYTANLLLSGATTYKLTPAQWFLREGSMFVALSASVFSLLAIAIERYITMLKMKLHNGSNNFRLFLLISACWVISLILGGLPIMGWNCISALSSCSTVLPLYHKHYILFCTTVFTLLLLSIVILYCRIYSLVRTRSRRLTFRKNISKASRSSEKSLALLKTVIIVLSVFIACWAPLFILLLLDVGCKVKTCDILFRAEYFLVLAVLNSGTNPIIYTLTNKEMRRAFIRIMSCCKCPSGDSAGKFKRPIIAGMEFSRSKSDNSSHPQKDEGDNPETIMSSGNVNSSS
Chain of Lytic switch protein BZLF1 (P03206 whole entry): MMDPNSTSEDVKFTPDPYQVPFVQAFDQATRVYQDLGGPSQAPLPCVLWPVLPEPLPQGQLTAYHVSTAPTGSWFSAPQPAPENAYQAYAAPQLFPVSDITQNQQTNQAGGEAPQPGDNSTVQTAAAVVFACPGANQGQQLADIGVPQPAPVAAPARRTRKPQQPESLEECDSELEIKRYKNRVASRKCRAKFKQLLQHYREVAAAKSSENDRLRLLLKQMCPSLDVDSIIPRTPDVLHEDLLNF
Chain of Nonstructural protein 1 (Q194T2 whole entry): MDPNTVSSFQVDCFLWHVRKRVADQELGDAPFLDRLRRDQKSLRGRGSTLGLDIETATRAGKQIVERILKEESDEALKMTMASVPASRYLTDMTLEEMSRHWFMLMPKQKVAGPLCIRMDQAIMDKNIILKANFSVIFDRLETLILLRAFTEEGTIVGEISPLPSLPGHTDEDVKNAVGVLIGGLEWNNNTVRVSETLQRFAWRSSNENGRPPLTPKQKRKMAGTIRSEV
Chain of Epstein-Barr nuclear antigen 1 (P03211 whole entry): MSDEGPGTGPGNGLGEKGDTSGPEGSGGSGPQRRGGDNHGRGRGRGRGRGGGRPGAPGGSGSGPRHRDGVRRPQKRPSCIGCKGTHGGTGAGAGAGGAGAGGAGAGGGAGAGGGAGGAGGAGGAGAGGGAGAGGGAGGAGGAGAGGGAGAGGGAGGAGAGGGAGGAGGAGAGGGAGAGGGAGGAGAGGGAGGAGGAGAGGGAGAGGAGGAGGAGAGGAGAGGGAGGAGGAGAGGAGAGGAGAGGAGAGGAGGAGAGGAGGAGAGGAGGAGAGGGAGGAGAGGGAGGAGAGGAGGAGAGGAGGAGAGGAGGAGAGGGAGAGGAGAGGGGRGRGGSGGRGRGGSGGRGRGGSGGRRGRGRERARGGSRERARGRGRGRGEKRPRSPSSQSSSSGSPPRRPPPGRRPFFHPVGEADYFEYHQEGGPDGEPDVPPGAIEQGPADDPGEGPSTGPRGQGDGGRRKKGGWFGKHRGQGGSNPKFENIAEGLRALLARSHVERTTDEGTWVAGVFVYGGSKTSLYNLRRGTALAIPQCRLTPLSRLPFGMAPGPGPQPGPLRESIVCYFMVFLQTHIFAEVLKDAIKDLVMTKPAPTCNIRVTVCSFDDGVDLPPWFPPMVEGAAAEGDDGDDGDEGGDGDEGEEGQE
Chain of Sphingosine 1-phosphate receptor 3 (Q99500 whole entry): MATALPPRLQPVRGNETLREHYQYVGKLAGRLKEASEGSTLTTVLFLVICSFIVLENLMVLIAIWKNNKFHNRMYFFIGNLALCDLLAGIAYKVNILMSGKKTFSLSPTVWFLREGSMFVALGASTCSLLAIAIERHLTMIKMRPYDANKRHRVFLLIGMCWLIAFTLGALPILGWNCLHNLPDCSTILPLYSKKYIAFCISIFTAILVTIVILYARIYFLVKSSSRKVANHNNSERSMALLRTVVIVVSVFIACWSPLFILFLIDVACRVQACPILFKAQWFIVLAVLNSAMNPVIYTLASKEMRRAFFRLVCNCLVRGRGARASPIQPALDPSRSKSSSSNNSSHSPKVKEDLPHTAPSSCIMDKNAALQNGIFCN
Chain of Sphingosine 1-phosphate receptor 2 (O95136 whole entry): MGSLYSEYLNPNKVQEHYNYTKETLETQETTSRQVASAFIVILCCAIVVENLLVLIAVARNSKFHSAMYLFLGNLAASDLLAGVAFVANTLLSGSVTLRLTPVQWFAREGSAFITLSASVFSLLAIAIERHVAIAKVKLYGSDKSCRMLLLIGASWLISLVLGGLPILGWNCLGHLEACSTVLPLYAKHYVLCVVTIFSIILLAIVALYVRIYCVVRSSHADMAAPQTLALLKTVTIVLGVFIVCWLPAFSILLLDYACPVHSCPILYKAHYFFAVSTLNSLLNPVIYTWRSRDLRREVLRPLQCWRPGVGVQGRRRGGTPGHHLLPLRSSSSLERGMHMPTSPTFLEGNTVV
Chain of G-protein coupled receptor 55 (Q9Y2T6 whole entry): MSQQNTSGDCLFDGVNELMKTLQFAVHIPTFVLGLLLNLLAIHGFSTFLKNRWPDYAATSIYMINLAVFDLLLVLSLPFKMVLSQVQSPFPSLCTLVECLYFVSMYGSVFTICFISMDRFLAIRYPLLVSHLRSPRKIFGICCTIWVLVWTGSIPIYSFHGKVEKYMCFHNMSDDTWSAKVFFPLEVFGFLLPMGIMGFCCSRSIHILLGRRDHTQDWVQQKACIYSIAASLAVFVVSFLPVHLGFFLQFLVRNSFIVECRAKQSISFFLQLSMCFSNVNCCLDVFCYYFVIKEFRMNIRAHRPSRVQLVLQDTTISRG
Chain of Beta-galactosidase (Q8VNN2 whole entry): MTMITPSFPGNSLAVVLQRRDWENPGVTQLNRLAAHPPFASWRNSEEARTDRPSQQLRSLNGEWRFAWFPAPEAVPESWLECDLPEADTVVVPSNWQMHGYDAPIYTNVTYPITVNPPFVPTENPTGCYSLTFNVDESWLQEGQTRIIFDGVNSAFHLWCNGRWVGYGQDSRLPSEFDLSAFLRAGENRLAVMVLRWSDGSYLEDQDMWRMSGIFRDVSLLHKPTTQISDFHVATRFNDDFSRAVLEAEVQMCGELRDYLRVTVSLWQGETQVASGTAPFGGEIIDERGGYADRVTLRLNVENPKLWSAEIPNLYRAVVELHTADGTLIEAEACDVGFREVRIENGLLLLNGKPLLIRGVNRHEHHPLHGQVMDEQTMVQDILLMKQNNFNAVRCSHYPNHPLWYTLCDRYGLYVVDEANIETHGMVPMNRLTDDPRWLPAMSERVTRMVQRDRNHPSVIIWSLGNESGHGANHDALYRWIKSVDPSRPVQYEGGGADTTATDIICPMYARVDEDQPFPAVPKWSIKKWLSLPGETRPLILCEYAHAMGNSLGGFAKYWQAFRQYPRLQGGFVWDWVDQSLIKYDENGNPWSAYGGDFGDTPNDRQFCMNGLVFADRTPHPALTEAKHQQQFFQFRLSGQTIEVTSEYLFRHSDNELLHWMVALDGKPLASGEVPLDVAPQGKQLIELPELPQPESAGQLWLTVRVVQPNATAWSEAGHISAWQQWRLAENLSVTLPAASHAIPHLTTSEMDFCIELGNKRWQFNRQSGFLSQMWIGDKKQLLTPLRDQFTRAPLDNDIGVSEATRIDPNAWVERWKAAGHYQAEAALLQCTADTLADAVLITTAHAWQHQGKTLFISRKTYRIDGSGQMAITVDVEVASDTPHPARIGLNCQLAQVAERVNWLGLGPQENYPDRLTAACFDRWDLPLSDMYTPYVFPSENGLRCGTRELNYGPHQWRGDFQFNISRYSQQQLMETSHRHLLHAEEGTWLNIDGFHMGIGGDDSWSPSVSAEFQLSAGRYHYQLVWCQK

Question: For `CC(=O)Nc1ccc(C(=O)Nc2nc(-c3ccccn3)cs2)cc1`, which IC50 [1] is on record?
Answer: 38 µM (active)

Question: What about the IC50 (Nonstructural protein 1) of the same compound?
Answer: 7.8 µM (active)

Question: And the IC50 (H9c2)?
Answer: > 79 µM (inactive)

Question: What does the source list for `COc1cccc(OC)c1C(=O)Nc1nc2cc3c(cc2s1)OCO3`?
Answer: IC50 [2]: 15.5 µM (not active); IC50 [3]: > 111 µM (not active)

Question: What does the source list for `Cc1cc(C(=O)N2C(C)CCCC2C)no1` (stereo not given)?
Answer: EC50 [4]: > 10 µM (not active); EC50 [5]: > 50 µM (not active); EC50 [6]: > 50 µM (not active)

Question: Which results are given for `COc1ccccc1N=Nc1nc(-c2ccccc2)c(-c2ccccc2)[nH]1`?
Answer: EC50 [7]: 1.97 µM (active); EC50 (Streptokinase A): 89.6 µM (active); IC50 [8]: 0.587 µM (active); IC50 [9]: 24 µM (inactive); EC50 (Beta-galactosidase): 23.9 µM (active); IC50 [10]: > 32 µM; EC50 [11]: > 100 µM (active); EC50 (Streptococcus): > 150 µM (not active); IC50 [12]: 36.8 µM (inactive)

Question: Which results are given for `O=C(C1=C(O)C(=O)N(c2ncccn2)C1c1cccc(Cl)c1)c1ccco1` (stereo not given)?
Answer: IC50 (Bcl-2-related protein A1 [13]): > 100 µM (not active); IC50 (Bcl-2-related protein A1 [14]): > 100 µM (not active); Ki (fMet-Leu-Phe receptor): > 66.7 µM (inactive)
